Measured values published in patent US10543223B2, “Mannose derivatives useful for treating pathologies associated with adherent E. coli” (ENTEROME, priority 2015, dated 2020).
Where “and” joins values, the source holds several entries; their conditions need not be identical. Identical values can stand only once. Like-named read-outs stand apart in the source and are kept apart here.

Legend:
LF82 = test: Hemagglutination inhibition assay, guinea pig erythrocytes, E. coli strain LF82; assay type: cell-based; details: Escherichia coli, read-out: MIC of haemagglutination
Protocol: (§1) Interaction of E. coli FimH adhesins with the glycocalyx of guinea pig erythrocytes forms a crosslinked network in the wells. Glycoconjugates, added in a 2-fold dilution series, prevent the agglutination reaction. The inhibition titer is defined as the lowest concentration of the glycoconjugate at which hemagglutination is still inhibited. Several strains of E. coli were grown statically overnight in LB at 37° C., washed three times in ice-cold phosphate-buffered saline, and redissolved. A 2-fold dilution of glycoconjugates with a starting concentration of 1 mM was prepared in 25 μL of PBS with 10% of DMSO. Importantly, the pipet tip was changed at every dilution step to avoid carry-over. Next, the bacterial solution (25 μL) was added to the 2-fold dilution series of the compound. Finally, 50 μL of guinea pig red blood cells, washed and diluted in the buffer to 5% of the blood volume, was added to reach 100 μL. The plates were left on ice for one night before read-out.
(§2) The anti-adhesive capacity of the inhibitors was evaluated against ten E. coli strains isolated from CD patients, urinary tract infections, and hip prosthesis infections.

[1] = system: uropathogenic E. coli strain UTI89; test: Hemagglutination inhibition assay, guinea pig erythrocytes, E. coli strain UTI89; assay type: cell-based; details: Escherichia coli, read-out: MIC of haemagglutination
Protocol: as §1
Inhibition of E. coli Strain UTI89 Isolated from Patient with Urinary Tract Infection.
as §2

[2] = Plasma concentrations and pharmacokinetics after IV and PO administration to rats; assay type: in vivo, Sprague Dawley rats; details: for % AUCextra / AUC(0-inf) / AUC(0-t) / Cmax / Tmax: DMSO, based on mean data
Protocol: Plasma and faeces concentrations after administration of Compound 1b and for compound 13 of WO 2014/016361 at 1 mg/kg by intravenous route and 10 mg/kg by oral route to Sprague Dawley rats
At least 8 point calibration standards are run using standard conditions which consist to LC-MS/MS system with C18 column after precipitation of proteins with acetonitrile before the start of the analytical test.
For the plasma, 100 μL of blank rat plasma are directly spiked with the compounds before being precipitate with 300 μL of acetonitrile.
The concentration ranges tested are: • 0.5 ng/mL to 1000 ng/mL for plasma, • 4 to 2000 ng/g for faeces, corresponding to 1 to 500 ng/mL of faeces homogenate. 3. In-Life Part
12 male Sprague Dawley rats around 6-7 week old are used.
At prescribed times, blood is collected. Animals are briefly anaesthetised with Isoflurane® using an anaesthetic system (Équipement Vétérinaire Minerve) during blood samplings.
Blood samples are centrifuged at 2500 rpm at +4° C. (between 0 and 9° C.), the plasma is removed and placed into labelled polypropylene tubes. Individual plasma samples are stored frozen at −20° C. (target temperature) until analysis.
100 μL of the plasma sample are taken and 300 μL of acetonitrile are added. After protein precipitation, analysis is performed using LC-MS/MS determination according to previous analytical test results.
Concentrations of the samples are calculated directly from chromatograms after automatic integration by Analyst® 1.5.1 and expressed as ng/mL.
Mean plasma concentrations are calculated (when calculable, i.e. n≥2) using individual concentration and are expressed with the corresponding standard deviation value and variation coefficient (when calculable, i.e. n≥3), with
[formula] The individual plasma concentrations are tabulated for each rat and scheduled sampling time. Concentrations below the LLOQ are indicated by BLQ. All BLQ concentrations are substituted by zero for calculation of the descriptive statistics of the concentrations. 5. Results Estimation of pharmacokinetics parameters is performed using Kinetica® (Version 4.3—Thermo Electron Corporation—Philadelphia—USA). It was performed by using a one-compartment model approach, which considers the body as a single compartment in which the concentration is homogeneous. The following parameters are estimated: Cmax (ng/mL): maximal plasma concentration Tmax (h): first time to reach Cmax AUCt (ng/mL*h): area under the plasma concentration-time curve from administration up to the last quantifiable concentration at time t
[formula] “BLQ” stands for “Below the Limit of Quantification” ([…] for plasma). Compound 1b

[3] = Faeces concentrations and recovery after IV and PO administration to rats; assay type: in vivo, Sprague Dawley rats; details: 0-24 h; for dose excreted: Sprague Dawley, rat, faeces
Protocol: Plasma and faeces concentrations after administration of Compound 1b and for compound 13 of WO 2014/016361 at 1 mg/kg by intravenous route and 10 mg/kg by oral route to Sprague Dawley rats Blank rat faeces are homogenized with 3 volumes of UHQ water until obtention of a paste. Then 100 μL of the homogenate are spiked with the molecules and precipitated with 300 μL of acetonitrile. The concentration ranges tested are: • 0.5 ng/mL to 1000 ng/mL for plasma, • 4 to 2000 ng/g for faeces, corresponding to 1 to 500 ng/mL of faeces homogenate. 3. In-Life Part After administration, the animals are placed in individual metabolic cages in order to collect faeces samples during 24 hours. Faeces samples are collected over the 24 hours of the experiment. They are precisely weighed and 3 volumes of UHQ water are added. The mixture is homogeneized until obtention of a paste. Then 100 μL of the homogenate are taken and extracted with 300 μL of Acetonitrile. Analysis is performed using LC-MS/MS determination according to previous analytical test results.

[4] = male, Sprague Dawley, rat, plasma, IV 1 mg/kg
[5] = male, Sprague Dawley, rat, plasma, PO 10 mg/kg
[6] = IV 1 mg/kg, individual rats IV1-IV3, 1 mg/kg
[7] = PO 10 mg/kg, individual rats PO4-PO6, 10 mg/kg

Cc1nc(-c2cnccn2)sc1C(=O)c1cnc(C[C@H]2O[C@H](CO)[C@@H](O)[C@H](O)[C@@H]2O)s1 [Compound 1b, 5-(4-methyl-2-(pyrazin-2-yl)thiazole-5-carbonyl) 2-((-α-D-mannopyranos-1-yl)methyl)thiazole]
MIC (LF82): 0.024 µM | MIC [1]: 6 µM | Plasma concentration ([2]; IV 1 mg/kg, 0.083 h, individual rats IV1-IV3, 1 mg/kg): 470.2 ng/mL and 908.7 ng/mL | Plasma concentration ([2]; IV 1 mg/kg, 0.5 h, individual rats IV1-IV3, 1 mg/kg): 108.2 ng/mL and 66.5 ng/mL | Plasma concentration ([2]; IV 1 mg/kg, 2 h, individual rats IV1-IV3, 1 mg/kg): BLQ | Plasma concentration ([2]; IV 1 mg/kg, 6 h, individual rats IV1-IV3): BLQ | Plasma concentration ([2]; IV 1 mg/kg, 24 h, individual rats IV1-IV3): BLQ | % AUCextra ([2]; IV 1 mg/kg): 0.35% | Plasma concentration ([2]; PO 10 mg/kg, 0.5 h, individual rats PO4-PO6, 10 mg/kg): 8.1 ng/mL and 6.5 ng/mL | Plasma concentration ([2]; PO 10 mg/kg, 1 h, individual rats PO4-PO6, 10 mg/kg): 6.5 ng/mL and BLQ | Plasma concentration ([2]; PO 10 mg/kg, 2 h, individual rats PO4-PO6, 10 mg/kg): BLQ and 5.2 ng/mL | Plasma concentration ([2]; PO 10 mg/kg, 6 h, individual rats PO4-PO6): BLQ | Plasma concentration ([2]; PO 10 mg/kg, 24 h, individual rats PO4-PO6): BLQ | % AUCextra ([2]; PO 10 mg/kg): 53.8% | concentration at 0.083 h ([2]; male, Sprague Dawley, rat, plasma, iv, 1 mg/kg, IV 1 mg/kg, 0.083 h, individual rats IV1-IV3, read-out: Plasma concentration): 573 ng/mL | concentration at 0.083 h ([2]; male, Sprague Dawley, rat, plasma, iv, 1 mg/kg, IV 1 mg/kg, 0.083 h, mean of 3 rats (BLQ = 0), read-out: Plasma concentration, mean): 650 ng/mL | concentration at 0.5 h ([2]; male, Sprague Dawley, rat, plasma, iv, 1 mg/kg, IV 1 mg/kg, 0.5 h, individual rats IV1-IV3, read-out: Plasma concentration): 59.6 ng/mL | concentration at 0.5 h ([2]; male, Sprague Dawley, rat, plasma, iv, 1 mg/kg, IV 1 mg/kg, 0.5 h, mean of 3 rats (BLQ = 0), read-out: Plasma concentration, mean): 78.1 ng/mL | concentration at 2 h ([2]; male, Sprague Dawley, rat, plasma, iv, 1 mg/kg, IV 1 mg/kg, 2 h, individual rats IV1-IV3, read-out: Plasma concentration): 7.7 ng/mL | concentration at 2 h ([2]; male, Sprague Dawley, rat, plasma, iv, 1 mg/kg, IV 1 mg/kg, 2 h, mean of 3 rats (BLQ = 0), read-out: Plasma concentration, mean): 2.6 ng/mL | concentration at 6 h ([2]; male, Sprague Dawley, rat, plasma, iv, 1 mg/kg, IV 1 mg/kg, 6 h, mean of 3 rats (BLQ = 0), read-out: Plasma concentration, mean): 0 ng/mL | concentration at 24 h ([2]; male, Sprague Dawley, rat, plasma, iv, 1 mg/kg, IV 1 mg/kg, 24 h, mean of 3 rats (BLQ = 0)): 0 ng/mL | concentration at 0.5 h ([2]; male, Sprague Dawley, rat, plasma, po, 10 mg/kg, PO 10 mg/kg, 0.5 h, individual rats PO4-PO6, read-out: Plasma concentration): 6.7 ng/mL | concentration at 0.5 h ([2]; male, Sprague Dawley, rat, plasma, po, 10 mg/kg, PO 10 mg/kg, 0.5 h, mean of 3 rats (BLQ = 0), read-out: Plasma concentration, mean): 7.1 ng/mL | concentration at 1 h ([2]; male, Sprague Dawley, rat, plasma, po, 10 mg/kg, PO 10 mg/kg, 1 h, individual rats PO4-PO6, read-out: Plasma concentration): 5.5 ng/mL | concentration at 1 h ([2]; male, Sprague Dawley, rat, plasma, po, 10 mg/kg, PO 10 mg/kg, 1 h, mean of 3 rats (BLQ = 0), read-out: Plasma concentration, mean): 4 ng/mL | concentration at 2 h ([2]; male, Sprague Dawley, rat, plasma, po, 10 mg/kg, PO 10 mg/kg, 2 h, individual rats PO4-PO6, read-out: Plasma concentration): 6 ng/mL | concentration at 2 h ([2]; male, Sprague Dawley, rat, plasma, po, 10 mg/kg, PO 10 mg/kg, 2 h, mean of 3 rats (BLQ = 0), read-out: Plasma concentration, mean): 3.7 ng/mL | concentration at 6 h ([2]; male, Sprague Dawley, rat, plasma, po, 10 mg/kg, PO 10 mg/kg, 6 h, mean of 3 rats (BLQ = 0), read-out: Plasma concentration, mean): 0 ng/mL | concentration at 24 h ([2]; male, Sprague Dawley, rat, plasma, po, 10 mg/kg, PO 10 mg/kg, 24 h, mean of 3 rats (BLQ = 0)): 0 ng/mL | AUC(0-inf) [2, 4]: 267 ng·h/mL | AUC(0-t) [2, 4]: 266 ng·h/mL | Cmax [2, 4]: 651 ng/mL | Tmax [2, 4]: 4.8 min | bioavailability ([2]; male, Sprague Dawley, rat, plasma, PO 10 mg/kg vs IV 1 mg/kg, calculated based on AUCt, read-out: F (bioavailability)): 0.3% | AUC(0-t) [2, 5]: 8 ng·h/mL | Cmax [2, 5]: 7.07 ng/mL | Tmax [2, 5]: 30 min | AUC(0-inf) ([2]; male, Sprague Dawley, rat, plasma, PO 10 mg/kg, % AUC extra >20%: value given for indication): 18.2 ng·h/mL | Faeces concentration [3, 6]: 3557 ng/g and 6433 ng/g and 2274 ng/g | Faeces concentration (homogenate) [3, 6]: 889 ng/mL and 1608 ng/mL and 569 ng/mL | Recovery in faeces [3, 6]: 9.2% and 6.8% | Total amount of compound in faeces [3, 6]: 25318 ng and 22175 ng and 19840 ng | Faeces concentration (homogenate), mean ([3]; IV 1 mg/kg, mean of 3 rats): 1022 ng/mL | Faeces concentration, mean ([3]; IV 1 mg/kg, mean of 3 rats): 4088 ng/g | Total amount of compound in faeces, mean ([3]; IV 1 mg/kg, mean of 3 rats): 22445 ng | Faeces concentration [3, 7]: 146214 ng/g and 115495 ng/g and 146982 ng/g | Faeces concentration (homogenate) [3, 7]: 36553 ng/mL and 28874 ng/mL and 36745 ng/mL | Recovery in faeces [3, 7]: 41.6% and 45.1% | Total amount of compound in faeces [3, 7]: 1335427 ng and 1081683 ng and 1171915 ng | Faeces concentration (homogenate), mean ([3]; PO 10 mg/kg, mean of 3 rats): 34058 ng/mL | Faeces concentration, mean ([3]; PO 10 mg/kg, mean of 3 rats): 136230 ng/g | Total amount of compound in faeces, mean ([3]; PO 10 mg/kg, mean of 3 rats): 1196341 ng | dose excreted ([3]; iv, 1 mg/kg, IV 1 mg/kg, individual rats IV1-IV3, read-out: Recovery in faeces): 10.5% | dose excreted ([3]; iv, 1 mg/kg, IV 1 mg/kg, mean of 3 rats, read-out: Recovery in faeces, mean): 8.9% | dose excreted ([3]; po, 10 mg/kg, PO 10 mg/kg, individual rats PO4-PO6, read-out: Recovery in faeces): 55.6% | dose excreted ([3]; po, 10 mg/kg, PO 10 mg/kg, mean of 3 rats, read-out: Recovery in faeces, mean (quantity found in faeces out of the administered quantity)): 47.4%
